Data from patent EP3212201B1, “NUCLEOSIDE KINASE INHIBITORS” (BCI Pharma, priority 2014, dated 2016).

What was measured:
Experiment in all cases: FRET-based coupled-enzyme protein kinase inhibition assay
Assay type in all cases: biochemical
Conditions in all cases: compound at 10 µM, 1% DMSO
CDK1/cyclin B = CDK1/cyclin B (Homo sapiens, UniProt P06493)
Method in brief: (§1)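 FRET peptide (coumarin donor, fluorescein acceptor) was phosphorylated by each kinase in 50 mM HEPES pH 7.5, 10 mM MgCl2, 1 mM EDTA, 0.01% BRIJ-35 for 60 min at room temperature. ATP was at apparent Km, compounds in 1% DMSO. Protease development reagent then cleaved non-phosphorylated peptide over 60 min.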

EPHA2 = EPHA2 (Homo sapiens, UniProt P29317)
Method in brief: as §1

FRAP1 (mTOR) = FRAP1 (mTOR) (Homo sapiens, UniProt P42345)
Method in brief: as §1

INSR = INSR (Homo sapiens, UniProt P06213)
Method in brief: as §1

KDR (VEGFR2) = KDR (VEGFR2) (Homo sapiens, UniProt P35968)
Method in brief: as §1

KIT = KIT (Homo sapiens, UniProt P10721)
Method in brief: as §1

LCK = LCK (Homo sapiens, UniProt P06239)
Method in brief: as §1

MAP4K4 (HGK) = MAP4K4 (HGK) (Homo sapiens, UniProt O95819)
Method in brief: as §1

MARK2 = MARK2 (Homo sapiens, UniProt Q7KZI7)
Method in brief: as §1

PAK4 = PAK4 (Homo sapiens, UniProt O96013)
Method in brief: as §1

PLK1 = PLK1 (Homo sapiens, UniProt P53350)
Method in brief: as §1

SYK = SYK (Homo sapiens, UniProt P43405)
Method in brief: as §1

Sequence of KIT (P10721 26-976, species assumed): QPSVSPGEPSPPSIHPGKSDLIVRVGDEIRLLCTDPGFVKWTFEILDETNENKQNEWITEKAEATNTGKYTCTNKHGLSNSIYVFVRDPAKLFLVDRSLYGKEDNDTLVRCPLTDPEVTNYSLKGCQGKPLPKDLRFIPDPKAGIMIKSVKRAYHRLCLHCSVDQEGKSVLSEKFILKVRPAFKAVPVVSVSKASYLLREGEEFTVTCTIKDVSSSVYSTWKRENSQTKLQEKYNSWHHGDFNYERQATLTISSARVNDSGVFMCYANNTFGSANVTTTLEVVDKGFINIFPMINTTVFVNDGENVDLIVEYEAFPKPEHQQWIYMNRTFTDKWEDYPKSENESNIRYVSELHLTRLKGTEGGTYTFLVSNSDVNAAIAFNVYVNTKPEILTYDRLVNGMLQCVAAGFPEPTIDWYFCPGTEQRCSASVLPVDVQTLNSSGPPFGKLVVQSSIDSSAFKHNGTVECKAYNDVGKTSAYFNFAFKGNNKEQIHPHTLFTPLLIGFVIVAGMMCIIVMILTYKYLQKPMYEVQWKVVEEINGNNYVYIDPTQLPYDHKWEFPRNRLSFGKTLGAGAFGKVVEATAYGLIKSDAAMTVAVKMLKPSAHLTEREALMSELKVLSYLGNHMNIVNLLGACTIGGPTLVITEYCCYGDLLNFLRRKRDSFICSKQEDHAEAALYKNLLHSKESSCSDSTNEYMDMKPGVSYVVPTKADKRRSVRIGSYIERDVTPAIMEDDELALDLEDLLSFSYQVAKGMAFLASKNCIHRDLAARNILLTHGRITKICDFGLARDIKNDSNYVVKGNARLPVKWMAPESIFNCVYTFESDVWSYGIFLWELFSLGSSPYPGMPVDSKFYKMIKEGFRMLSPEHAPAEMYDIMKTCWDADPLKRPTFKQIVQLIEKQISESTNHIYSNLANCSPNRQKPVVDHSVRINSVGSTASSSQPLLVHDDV
Sequence of PLK1 (P53350 whole entry, species assumed): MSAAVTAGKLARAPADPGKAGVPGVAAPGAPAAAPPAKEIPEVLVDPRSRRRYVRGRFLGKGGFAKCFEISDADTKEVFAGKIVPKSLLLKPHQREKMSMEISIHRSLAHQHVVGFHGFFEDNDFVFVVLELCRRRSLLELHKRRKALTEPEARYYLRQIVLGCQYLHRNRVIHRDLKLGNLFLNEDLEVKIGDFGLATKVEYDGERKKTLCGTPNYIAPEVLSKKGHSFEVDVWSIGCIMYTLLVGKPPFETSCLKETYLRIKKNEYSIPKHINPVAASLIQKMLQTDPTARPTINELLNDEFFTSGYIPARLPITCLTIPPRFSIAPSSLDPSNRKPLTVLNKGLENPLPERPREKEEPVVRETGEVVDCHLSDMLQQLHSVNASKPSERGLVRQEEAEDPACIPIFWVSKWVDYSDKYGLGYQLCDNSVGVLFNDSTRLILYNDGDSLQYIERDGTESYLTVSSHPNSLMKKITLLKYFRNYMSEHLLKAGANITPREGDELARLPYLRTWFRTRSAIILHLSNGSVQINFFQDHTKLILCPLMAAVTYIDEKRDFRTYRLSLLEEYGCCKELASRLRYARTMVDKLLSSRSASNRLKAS
Sequence of MAP4K4 (HGK) (O95819 whole entry, species assumed): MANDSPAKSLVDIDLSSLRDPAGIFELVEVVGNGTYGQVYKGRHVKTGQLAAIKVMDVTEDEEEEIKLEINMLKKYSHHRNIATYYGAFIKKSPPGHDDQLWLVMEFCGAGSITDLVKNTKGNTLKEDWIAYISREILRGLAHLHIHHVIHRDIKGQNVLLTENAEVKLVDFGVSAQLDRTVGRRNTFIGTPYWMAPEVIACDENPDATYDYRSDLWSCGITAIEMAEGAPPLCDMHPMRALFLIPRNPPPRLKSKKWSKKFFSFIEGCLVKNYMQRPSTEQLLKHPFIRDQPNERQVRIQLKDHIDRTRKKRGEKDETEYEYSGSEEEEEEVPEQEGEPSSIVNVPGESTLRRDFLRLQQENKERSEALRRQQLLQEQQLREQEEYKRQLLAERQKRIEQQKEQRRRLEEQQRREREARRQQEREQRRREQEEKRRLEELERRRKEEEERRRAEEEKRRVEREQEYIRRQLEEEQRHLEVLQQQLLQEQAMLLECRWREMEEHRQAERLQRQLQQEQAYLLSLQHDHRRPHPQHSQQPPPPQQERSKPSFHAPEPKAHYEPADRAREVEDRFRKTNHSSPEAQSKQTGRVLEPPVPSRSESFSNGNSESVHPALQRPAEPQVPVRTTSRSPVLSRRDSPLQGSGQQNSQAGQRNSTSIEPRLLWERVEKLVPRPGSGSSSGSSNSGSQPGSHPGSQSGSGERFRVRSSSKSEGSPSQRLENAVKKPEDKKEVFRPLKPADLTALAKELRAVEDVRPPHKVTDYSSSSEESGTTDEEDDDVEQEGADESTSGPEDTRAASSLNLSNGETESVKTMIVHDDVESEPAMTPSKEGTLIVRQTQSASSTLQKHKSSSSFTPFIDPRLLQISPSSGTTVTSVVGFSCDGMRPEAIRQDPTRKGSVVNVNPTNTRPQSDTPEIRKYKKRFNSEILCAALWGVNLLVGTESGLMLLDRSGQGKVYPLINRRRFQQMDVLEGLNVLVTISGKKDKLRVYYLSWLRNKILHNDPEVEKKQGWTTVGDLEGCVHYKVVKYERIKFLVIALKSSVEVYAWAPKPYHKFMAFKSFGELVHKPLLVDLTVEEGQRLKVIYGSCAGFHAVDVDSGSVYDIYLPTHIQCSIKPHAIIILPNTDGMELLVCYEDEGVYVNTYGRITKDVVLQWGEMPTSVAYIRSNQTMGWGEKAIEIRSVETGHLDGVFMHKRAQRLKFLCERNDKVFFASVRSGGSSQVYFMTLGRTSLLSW
Sequence of MARK2 (Q7KZI7 whole entry, species assumed): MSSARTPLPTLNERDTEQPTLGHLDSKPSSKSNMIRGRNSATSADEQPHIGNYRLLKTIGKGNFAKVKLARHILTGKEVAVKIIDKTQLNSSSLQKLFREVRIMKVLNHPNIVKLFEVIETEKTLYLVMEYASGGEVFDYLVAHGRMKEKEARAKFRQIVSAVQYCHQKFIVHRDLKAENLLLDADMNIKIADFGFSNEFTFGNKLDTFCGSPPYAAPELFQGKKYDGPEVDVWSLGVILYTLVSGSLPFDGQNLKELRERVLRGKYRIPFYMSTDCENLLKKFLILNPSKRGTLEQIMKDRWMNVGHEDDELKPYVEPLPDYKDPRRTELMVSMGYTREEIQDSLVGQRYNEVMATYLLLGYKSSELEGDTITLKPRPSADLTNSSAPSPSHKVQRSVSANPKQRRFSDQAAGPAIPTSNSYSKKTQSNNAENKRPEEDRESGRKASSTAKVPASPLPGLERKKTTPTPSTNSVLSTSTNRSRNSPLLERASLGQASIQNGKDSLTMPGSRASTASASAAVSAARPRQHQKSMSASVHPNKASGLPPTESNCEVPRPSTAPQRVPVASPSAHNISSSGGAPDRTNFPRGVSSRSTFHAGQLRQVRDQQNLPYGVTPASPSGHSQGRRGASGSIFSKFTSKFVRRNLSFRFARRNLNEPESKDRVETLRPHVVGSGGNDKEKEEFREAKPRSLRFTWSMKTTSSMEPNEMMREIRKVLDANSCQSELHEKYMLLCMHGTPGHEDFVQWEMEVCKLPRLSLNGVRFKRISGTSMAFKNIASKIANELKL
Sequence of EPHA2 (P29317 24-976, species assumed): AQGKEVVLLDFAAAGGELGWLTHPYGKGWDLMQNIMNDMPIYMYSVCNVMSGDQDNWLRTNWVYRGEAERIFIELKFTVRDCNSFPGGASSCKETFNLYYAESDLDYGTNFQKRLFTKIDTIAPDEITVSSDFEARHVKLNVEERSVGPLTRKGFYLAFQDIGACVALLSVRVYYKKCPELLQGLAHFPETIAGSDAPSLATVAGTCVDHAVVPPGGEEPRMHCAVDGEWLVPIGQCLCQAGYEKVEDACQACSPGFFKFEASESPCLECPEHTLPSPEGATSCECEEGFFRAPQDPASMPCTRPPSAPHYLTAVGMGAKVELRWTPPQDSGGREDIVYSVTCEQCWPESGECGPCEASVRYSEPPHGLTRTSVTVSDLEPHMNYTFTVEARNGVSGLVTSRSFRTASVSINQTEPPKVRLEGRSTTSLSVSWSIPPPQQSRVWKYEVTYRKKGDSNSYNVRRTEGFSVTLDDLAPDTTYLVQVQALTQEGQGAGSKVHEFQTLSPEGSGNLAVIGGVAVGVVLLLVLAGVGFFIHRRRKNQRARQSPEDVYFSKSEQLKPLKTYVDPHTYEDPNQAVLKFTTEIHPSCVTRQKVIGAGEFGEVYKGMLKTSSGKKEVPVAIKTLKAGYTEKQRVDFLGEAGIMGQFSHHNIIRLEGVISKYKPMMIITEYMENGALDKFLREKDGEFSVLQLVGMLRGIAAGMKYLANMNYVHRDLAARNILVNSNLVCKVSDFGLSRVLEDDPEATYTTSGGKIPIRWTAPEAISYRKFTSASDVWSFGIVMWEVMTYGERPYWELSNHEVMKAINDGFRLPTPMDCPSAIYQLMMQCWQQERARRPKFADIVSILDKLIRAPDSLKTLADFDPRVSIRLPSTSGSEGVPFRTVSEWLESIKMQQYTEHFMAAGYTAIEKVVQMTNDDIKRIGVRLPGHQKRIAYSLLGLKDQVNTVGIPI
Sequence of LCK (P06239 whole entry, species assumed): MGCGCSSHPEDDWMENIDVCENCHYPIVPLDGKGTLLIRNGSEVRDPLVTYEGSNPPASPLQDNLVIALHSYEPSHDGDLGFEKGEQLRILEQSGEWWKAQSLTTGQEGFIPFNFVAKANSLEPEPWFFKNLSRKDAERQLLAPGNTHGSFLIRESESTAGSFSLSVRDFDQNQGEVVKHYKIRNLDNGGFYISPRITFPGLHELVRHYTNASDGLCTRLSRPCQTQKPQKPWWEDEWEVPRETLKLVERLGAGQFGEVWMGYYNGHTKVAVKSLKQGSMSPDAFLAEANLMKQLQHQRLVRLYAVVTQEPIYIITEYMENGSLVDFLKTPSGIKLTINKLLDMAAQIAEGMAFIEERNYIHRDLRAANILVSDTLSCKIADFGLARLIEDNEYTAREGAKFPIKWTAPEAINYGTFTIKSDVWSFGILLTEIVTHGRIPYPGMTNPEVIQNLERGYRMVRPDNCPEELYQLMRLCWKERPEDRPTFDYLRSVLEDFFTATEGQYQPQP

inhibition at 10 µM (CDK1/cyclin B)	inhibition at 10 µM (EPHA2)	inhibition at 10 µM (FRAP1 (mTOR))	inhibition at 10 µM (INSR)	inhibition at 10 µM (KDR (VEGFR2))	inhibition at 10 µM (KIT)	inhibition at 10 µM (LCK)	inhibition at 10 µM (MAP4K4 (HGK))	inhibition at 10 µM (MARK2)	inhibition at 10 µM (PAK4)	inhibition at 10 µM (PLK1)	inhibition at 10 µM (SYK)	Compound
-2%	8%	-2%	0%	-6%	10%	72%	17%	3%	15%	-8%	3%	Nc1ncnc2c1ncn2[C@@H]1O[C@H](COC(=O)NCCCc2nc3ccccc3[nH]2)[C@@H](O)[C@H]1O [Compound C1]
8%	4%	-5%	5%	4%	20%	60%	16%	20%	12%	-3%	4%	C[C@@H](NC(=O)OC[C@H]1O[C@@H](n2cnc3c(N)ncnc32)[C@H](O)[C@@H]1O)c1ccc(Cl)cc1 [Compound C4]
4%	12%	5%	2%	0%	28%	26%	9%	10%	19%	-1%	7%	Nc1ncnc2c1ncn2[C@@H]1O[C@H](COC(=O)NC[C@H](O)CO)[C@@H](O)[C@H]1O [Compound C8]
3%	5%	-3%	4%	-3%	-3%	19%	-2%	6%	1%	-1%	-4%	Nc1ncnc2c1ncn2[C@@H]1O[C@H](COC(=O)N2CCC[C@H]2CO)[C@@H](O)[C@H]1O [Compound C9]
11%	9%	-3%	3%	8%	7%	62%	8%	8%	14%	-13%	1%	Nc1ncnc2c1ncn2[C@@H]1O[C@H](COC(=O)N[C@@H]2CCN(Cc3ccccc3)C2)[C@@H](O)[C@H]1O [Compound C10]
9%	3%	-1%	-3%	-3%	18%	44%	-5%	11%	7%	-12%	0%	Nc1ncnc2c1ncn2[C@@H]1O[C@H](COC(=O)N2CCN(Cc3ccccc3)CC2CO)[C@@H](O)[C@H]1O (stereo partly drawn) [Compound C13]
7%	7%	5%	0%	-10%	-1%	32%	17%	7%	3%	-6%	-1%	CC(C)N1CCC(NC(=O)OC[C@H]2O[C@@H](n3cnc4c(N)ncnc43)[C@H](O)[C@@H]2O)CC1 [Compound C19]
7%	1%	0%	-5%	-7%	3%	15%	17%	8%	7%	-5%	-8%	Nc1ncnc2c1ncn2[C@@H]1O[C@H](COC(=O)NCCN2CCCC2=O)[C@@H](O)[C@H]1O [Compound C22]
8%	-1%	-6%	2%	-3%	6%	57%	17%	18%	6%	-8%	-4%	Nc1ncnc2c1ncn2[C@@H]1O[C@H](COC(=O)N2CCN(CCc3ccccc3)CC2)[C@@H](O)[C@H]1O [Compound C26]
7%	3%	5%	0%	-7%	6%	13%	13%	4%	4%	-5%	0%	CN1CCN(CCNC(=O)OC[C@H]2O[C@@H](n3cnc4c(N)ncnc43)[C@H](O)[C@@H]2O)CC1 [Compound C46]
11%	9%	-4%	-5%	3%	-7%	57%	1%	-4%	10%	-5%	1%	Nc1ncnc2c1ncn2[C@@H]1O[C@H](COC(=O)N2CCC(Cc3ccc(F)cc3)C2)[C@@H](O)[C@H]1O (stereo partly drawn) [Compound C66]
4%	4%	-6%	-2%	-12%	12%	11%	-5%	6%	4%	0%	-1%	N#CCCN1CCN(C(=O)OC[C@H]2O[C@@H](n3cnc4c(N)ncnc43)[C@H](O)[C@@H]2O)CC1 [Compound C70]
3%	4%	2%	3%	2%	10%	25%	-8%	4%	1%	-3%	-1%	CN(C)CCNC(=O)OC[C@H]1O[C@@H](n2cnc3c(N)ncnc32)[C@H](O)[C@@H]1O [Compound C85]
1%	6%	-4%	0%	-6%	-16%	9%	9%	-3%	-4%	-10%	-5%	Nc1ncnc2c1ncn2[C@@H]1O[C@H](COC(=O)N2CCN(C(=O)N3CCOCC3)CC2)[C@@H](O)[C@H]1O [Compound C89]
8%	5%	2%	-2%	8%	20%	84%	68%	2%	7%	-7%	2%	CS(=O)(=O)N1CC2(CCN(C(=O)OC[C@H]3O[C@@H](n4cnc5c(N)ncnc54)[C@H](O)[C@@H]3O)CC2)c2ccccc21 [Compound C98]
5%	4%	-2%	-2%	-3%	-9%	9%	-6%	15%	2%	-11%	-3%	Nc1ncnc2c1ncn2[C@@H]1O[C@H](COC(=O)N2CCS(=O)(=O)CC2)[C@@H](O)[C@H]1O [Compound C100]
